In US4382030A, “2-Acylaminomethyl-1,4-benzodiazepine derivatives and their salts, pharmaceutical compositions thereof and process for their preparation” (Kali-Chemie Pharma GmbH, priority 1979, dated 1983):

Experiments:
[1] = tested on: mice (tail flick, heat beam pain reaction); test: Tail flick Test in Mice; type: in vivo; settings: sc, 0.5 h; mouse, s.c.; 30 minutes after administration; >75% increase of reaction time in 50% of animals
Procedure: (§1) This analgesic activity has been evaluated in two pharmacological standard methods, the tail flick test in mice and the arthritis pain test in rats.
3. Tail flick Test in Mice.
This test is carried out according to the method described by D'Amour and Smith (1941), yet fed male and female mice having a body weight of 16 to 25 g are used instead of rats. Thirty minutes prior to treatment with the test compound, each mouse is placed separately in a cylindrical container in such a manner that it cannot turn itself or move forward. Its tail is positioned in a narrow groove projecting out of the container. A certain point of the tail of each animal (about 35 mm beyond the root of the tail) is subjected to the heat beam of a lamp of known strength and temperature which is positioned directly under the tail. The number of seconds which pass before the mouse moves its tail out of the light beam is determined twice, once 30 minutes and once 15 minutes prior to subcutaneous administration of the test compound (10 mg/kg). Mice which show a reaction time differing more than 25% are eliminated from the test. The reaction time is again determined 15 minutes and 30 minutes after the treatment and an increase of the reaction period of more than 75% of the average values prior to treatment in the same animal is considered as showing an analgesic effect. The ED50 (95% reliability) of each test compound 30 minutes after administration is evaluated according to the method of Litchfield and Wilcoxon (1949). The dose which increases the reaction time as compared to the reaction time prior to treatment for more than 75% in 50% of the animals is considered as ED50.

[2] = tested on: rats (secondary arthritis pain, mycobacterium smegmae); test: Arthritis Pain Test in Rats; type: in vivo; settings: po, rat, p.o., 3 hours after administration, protection in 50% of treated animals
Procedure: as §1
2. Arthritis Pain Test in Rats.
Male rats having a weight of from 160 to 180 g are anesthetized by small i.p. injection of 20 mg/kg of sodium pentobarbital and 0.1 ml of a suspension of mycobacterium smegmae (SI 043) in liquid paraffin (0.6 mg mycobacterium/0.1 ml of oil) are injected intracutaneously into the left rear paw. Fourteen days later when a marked secondary arthritis has developed in particular in the right rear paw, the effect of the test compound is evaluated. A control-reading is taken 30 minutes prior to administration of the test compound by bending the foot joint of the right rear paw three times and counting the number of squeakings. […] Three hours after oral administration of the test compound the bending of the joint is repeated. Animals which squeak only once or not at all are considered to be protected against pain. Between about 9 and 20 rats are used per dose and the ED50 (95% reliability) is determined according to the method of Litchfield and Wilcoxon (1949). The dose which provides protection in 50% of the treated animals is taken as ED50.

Structure (SMILES)	ED50 [1]	ED50 [2]
CN1c2ccccc2C(c2ccccc2)=NCC1CNC(=O)c1ccoc1 (centres unmarked) [Compound 22, 1-methyl-2-[(furane-3-carbonyl)-aminomethyl]-5-phenyl-2,3-dihydro-1,4-benzodiazepine]	0.44 mg/kg	14 mg/kg
COc1ccc2c(c1)N(C)C(CNC(=O)c1sccc1C)CN=C2c1ccccc1 (centres unmarked) [Compound 23, 8-methoxy-1-methyl-2-[(3-methylthiophene-2-carbonyl)-aminomethyl]-5-phenyl-1H-2,3-dihydro-1,4-benzodiazepine]	7.2 mg/kg	25 mg/kg
CN1c2cc3c(cc2C(c2ccccc2)=NCC1CNC(=O)c1cccs1)OCO3 (centres unmarked) [Compound 24, 7,8-methylenedioxy-1-methyl-2-[(thiophene-2-carbonyl)-aminomethyl]-5-phenyl-1H-2,3-dihydro-1,4-benzodiazepine]	3.8 mg/kg	10 mg/kg
CN1c2cc3c(cc2C(c2ccccc2)=NCC1CNC(=O)c1ccco1)OCO3 (centres unmarked) [Compound 25]	< 5.6 mg/kg	< 32 mg/kg
CN1c2cc3c(cc2C(c2ccccc2)=NCC1CNC(=O)c1ccoc1)OCO3 (centres unmarked) [Compound 26, 7,8-methylenedioxy-1-methyl-2-[(furane-3-carbonyl)-aminomethyl]-5-phenyl-1H-2,3-dihydro-1,4-benzodiazepine]	2 mg/kg	< 5.6 mg/kg
COc1ccc2c(c1)N(C)C(CNC(=O)c1ccc(Br)s1)CN=C2c1ccccc1 (centres unmarked) [Compound 27, 8-methoxy-1-methyl-2-[(5-bromothiophene-2-carbonyl)-aminomethyl]-5-phenyl-1H-2,3-dihydro-1,4-benzodiazepine]	> 5.6 mg/kg	< 32 mg/kg
O=C(NCC1CN=C(c2ccccc2)c2ccccc2N1)c1cccs1 (centres unmarked) [Compound 28, 2-[(thiophene-2-carbonyl)-aminomethyl]-5-phenyl-1H-2,3-dihydro-1,4-benzodiazepine]	4.2 mg/kg	> 32 mg/kg
COc1ccc2c(c1)N(C)C(CNC(=O)c1cccnc1)CN=C2c1ccccc1 (centres unmarked) [Compound 29, 8-methoxy-1-methyl-2-nicotinoylaminomethyl-5-phenyl-1H-2,3-dihydro-1,4-benzodiazepine]	4 mg/kg	30 mg/kg
COc1ccc2c(c1)N(C)C(CNC(=O)c1ccccn1)CN=C2c1ccccc1 (centres unmarked) [Compound 30, 8-methoxy-1-methyl-2-picolinoylaminomethyl-5-phenyl-1H-2,3-dihydro-1,4-benzodiazepine]	7 mg/kg	> 32 mg/kg
COc1ccc2c(c1)N(C)C(CNC(=O)c1ccc(C)o1)CN=C2c1ccccc1 (centres unmarked) [Compound 31, 8-methoxy-1-methyl-2-[(5-methylfurane-2-carbonyl)-aminomethyl]-5-phenyl-1H-2,3-dihydro-1,4-benzodiazepine]	4.4 mg/kg	30 mg/kg
Cc1ccc(C(=O)NCC2CN=C(c3ccccc3)c3cc4c(cc3N2C)OCO4)s1 (centres unmarked) [Compound 32, 7,8-methylenedioxy-1-methyl-2-[(5-methylthiophene-2-carbonyl)-aminomethyl]-5-phenyl-1H-2,3-dihydro-1,4-benzodiazepine]	5.6 mg/kg	< 18 mg/kg
COc1ccc2c(c1)N(C)C(CNC(=O)c1cccn1C)CN=C2c1ccccc1 (centres unmarked) [Compound 33, 8-methoxy-1-methl-2-[(1-methylpyrrol-2-carbonyl)-aminomethyl]-5-phenyl-1H-2.3-dihydro-1,4-benzodiazepine]	1 mg/kg	< 18 mg/kg
COc1ccc2c(c1)N(C)C(CNC(=O)c1ccoc1)CN=C2c1ccc(F)cc1 (centres unmarked) [Compound 34, 8-methoxy-1-methyl-2-[(furane-3-carbonyl)-aminomethyl]-5-(4-fluorophenyl)-1H-2,3-dihydro-1,4-benzodiazepine]	2.1 mg/kg	5.6 mg/kg
COc1ccc2c(c1)N(C)C(CNC(=O)c1ccoc1)CN=C2c1ccccc1C(F)(F)F (centres unmarked) [Compound 35, 8-methoxy-1-methyl-2-[(furane-3-carbonyl)-aminomethyl]-5-(2-trifluoromethylphenyl)-1H-2,3-dihydro-1,4-benzodiazepine]	1 mg/kg	< 18 mg/kg
CN1c2ccccc2C(c2ccccc2)=NCC1CNC(=O)c1cccn1C (centres unmarked) [Compound 36, 1-methyl-2-[(1-methylpyrrol-2-carbonyl)-aminomethyl]-5-phenyl-1H-2,3-dihydro-1,4-benzodiazepine]	2.1 mg/kg	> 18 mg/kg
CN1c2cc(Cl)ccc2C(c2ccccc2)=NCC1CNC(=O)c1ccoc1 (centres unmarked) [Compound 37, 8-chloro-1-methyl-2-[(furane-3-carbonyl)-aminomethyl]-5-phenyl-1H-2,3-dihydro-1,4-benzodiazepine]	1.2 mg/kg	> 18 mg/kg
CN1c2cc(F)ccc2C(c2ccccc2)=NCC1CNC(=O)c1ccoc1 (centres unmarked) [Compound 38, 8-fluoro-1-methyl-2-[(furane-3-carbonyl)-amino-methyl]-5-phenyl-1H-2,3-dihydro-1,4-benzodiazepine]	0.32 mg/kg	< 18 mg/kg
COc1ccc2c(c1)N(C)C(CNC(=O)c1ccoc1)CN=C2c1ccccc1F (centres unmarked) [Compound 39, 8-methoxy-1-methyl-2-[(furane-3-carbonyl)-amino-methyl]-5-(2-fluorophenyl)-1H-2,3-dihydro-1,4-benzodiazepine]	0.7 mg/kg	< 10 mg/kg
COc1ccc2c(c1)N(C)C(CNC(=O)c1cccs1)CN=C2c1ccccc1F (centres unmarked) [Compound 40, 8-methoxy-1-methyl-2-[(thiophene-2-carbonyl)-aminomethyl]-5-(2-fluorophenyl)-1H-2,3-dihydro-1,4-benzodiazepine]	1.2 mg/kg	< 18 mg/kg
CN1c2cc3c(cc2C(c2ccccc2)=NCC1CNC(=O)c1ccsc1)OCO3 (centres unmarked) [Compound 41, 7,8-methylenedioxy-1-methyl-2-[(thiophene-3-carbonyl)-aminomethyl]-5-phenyl-1H-2,3-dihydro-1,4-benzodiazepine]	2.1 mg/kg	5.6 mg/kg
COc1ccc2c(c1)N(C)C(CNC(=O)c1ccoc1)CN=C2c1cccc(F)c1 (centres unmarked) [Compound 42, 8-methoxy-1-methyl-2-[(furane-3-carbonyl)-aminomethyl]-5-(3-fluorophenyl)-1H-2,3-dihydro-1,4-benzodiazepine]	5.6 mg/kg	< 18 mg/kg
Cc1ccc(C(=O)NCC2CN=C(c3ccccc3)c3ccc(F)cc3N2C)s1 (centres unmarked) [Compound 43, 8-fluoro-1-methyl-2-[(5-methylthiophene-2-carbonyl)-aminomethyl]-5-phenyl-1H-2,3-dihydro-1,4-benzodiazepine]	5.6 mg/kg	< 18 mg/kg
CN1c2cc3c(cc2C(c2ccccc2)=NCC1CNC(=O)c1ccoc1)OCCO3 (centres unmarked) [Compound 44, 7,8-ethylenedioxy-1-methyl-2-[(furane-3-carbonyl)-aminomethyl]-5-phenyl-1H-2,3-dihydro-1,4-benzodiazepine]	> 5.6 mg/kg	< 18 mg/kg
Cc1ccc2c(c1)C(c1ccccc1F)=NCC(CNC(=O)c1ccoc1)N2C (centres unmarked) [Compound 45, 1,7-dimethyl-2-[(furane-3-carbonyl)-aminomethyl]-5-(2-fluorophenyl)-1H-2,3-dihydro-1,4-benzodiazepine]	3.8 mg/kg	< 18 mg/kg
COc1ccc2c(c1)N(C)C(CNC(=O)c1ccc(Br)s1)CN=C2c1ccccc1F (centres unmarked) [Compound 46, 8-methoxy-1-methyl-2-[(5-bromothiophene-2-carbonyl)-aminomethyl]-5-(2-fluorophenyl)-1H-2,3-dihydro-1,4-benzodiazepine]	5.6 mg/kg	< 18 mg/kg
COc1ccc2c(c1)N(C)C(CNC(=O)c1cccs1)CN=C2c1ccc(F)cc1 (centres unmarked) [Compound 47]	3.2 mg/kg	< 18 mg/kg
COc1ccc2c(c1)N(C)C(CNC(=O)c1ccc(Br)s1)CN=C2c1cccc(F)c1 (centres unmarked) [Compound 48, 8-methoxy-1-methyl-2-[(5-bromothiophene-2-carbonyl)-aminomethyl]-5-(3-fluorophenyl)-1H-2,3-dihydro-1,4-benzodiazepine]	> 5.6 mg/kg	< 18 mg/kg
COc1ccc2c(c1)N(C)C(CNC(=O)c1ccc(Br)s1)CN=C2c1ccc(F)cc1 (centres unmarked) [Compound 49, 8-methoxy-1-methyl-2-[(5-bromothiophene-2-carbonyl)-aminomethyl]-5-(4-fluorophenyl)-1H-2,3-dihydro-1,4-benzodiazepine]	> 5.6 mg/kg	< 18 mg/kg
